Target: T1, human CRHR2-alpha (Homo sapiens, UniProt Q13324)
T1 construct: host or cells: CHO-K1
T1 sequence (Q13324 1-411): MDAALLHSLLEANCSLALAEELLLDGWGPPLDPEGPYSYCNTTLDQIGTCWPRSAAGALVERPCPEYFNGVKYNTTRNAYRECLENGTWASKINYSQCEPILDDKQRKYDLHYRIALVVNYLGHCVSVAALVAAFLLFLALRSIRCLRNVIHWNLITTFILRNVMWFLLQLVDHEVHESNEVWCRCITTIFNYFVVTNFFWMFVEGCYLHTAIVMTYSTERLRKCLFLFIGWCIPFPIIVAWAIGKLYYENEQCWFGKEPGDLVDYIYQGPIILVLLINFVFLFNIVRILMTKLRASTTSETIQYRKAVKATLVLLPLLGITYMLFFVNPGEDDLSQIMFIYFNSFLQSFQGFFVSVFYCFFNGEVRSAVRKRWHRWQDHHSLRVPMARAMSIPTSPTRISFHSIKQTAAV
Assay: cAMP functional assay for human CRHR2 (LANCE Ultra TR-FRET)
Type: cell-based
Settings: inhibition of cAMP production in CHO-K1 cells stably expressing human CRHR2-alpha, EC90 of human urocortin2 as agonist; read-out: IC50 against CRHR2
In short: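 CHO-K1 cells stably expressing CRHR2-alpha, serum-starved 7 h and cryopreserved, preincubated with compound 30 min at 25° C in HBSS with 0.1% BSA, 0.5 mM IBMX, 5 mM Hepes pH 7.4. EC90 human urocortin2 added for 30 min at 25° C; cAMP read by TR-FRET; IC50 from percent-inhibition curves.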

| Compound | IC50 [µM] |
| --- | --- |
| O=C(N[C@H]1CC[C@H](CN2C(=O)C(O)(c3cccc(F)c3F)c3ccccc32)CC1)c1cc(Cl)cnc1Cl (stereo partly drawn) [Example 167, 2,5-dichloro-N-((1r,4r)-4-((3-(2,3-difluorophenyl)-3-hydroxy-2-oxoindolin-1-yl)methyl)cyclohexyl) nicotinamide] | < 0.2 |
| COc1ccc(F)c(C2(O)C(=O)N(C[C@H]3CC[C@H](NC(=O)c4cc(Cl)cnc4C(F)F)CC3)c3ccc(F)cc32)c1 (stereo partly drawn) [Example 168, 5-chloro-2-(difluoromethyl)-N-((1r,4r)-4-((5-fluoro-3-(2-fluoro-5-methoxyphenyl)-3-hydroxy-2-oxoindolin-1-yl)methyl)cyclohexyl) nicotinamide] | < 0.2 |
| O=C(N[C@H]1CC[C@H](CN2C(=O)C(O)(c3ccccc3F)c3ccc(Cl)cc32)CC1)c1cc(Cl)cnc1C(F)F (stereo partly drawn) [Example 170, 5-chloro-N-((1r,4r)-4-((6-chloro-3-(2-fluorophenyl)-3-hydroxy-2-oxoindolin-1-yl)methyl)cyclohexyl)-2-(difluoromethyl)nicotinamide] | < 0.2 |
| Cc1ncc(Cl)cc1C(=O)N[C@H]1CC[C@H](CN2C(=O)C(O)(c3cccc(F)c3F)c3ccccc32)CC1 (stereo partly drawn) [Example 173, 5-chloro-N-((1r,4r)-4-((3-(2,3-difluorophenyl)-3-hydroxy-2-oxoindolin-1-yl)methyl)cyclohexyl)-2-methylnicotinamide] | < 0.2 |
| O=C(N[C@H]1CC[C@H](CN2C(=O)C(O)(c3ccccc3F)c3c(F)cc(F)cc32)CC1)c1cc(Cl)cnc1C(F)F (stereo partly drawn) [Example 177, 5-chloro-N-((1r,4r)-4-((4,6-difluoro-3-(2-fluorophenyl)-3-hydroxy-2-oxoindolin-1-yl)methyl)cyclohexyl)-2-(difluoromethyl)nicotinamide] | < 0.2 |
| Cc1cccc2c1C(O)(c1ccc(F)cn1)C(=O)N2C[C@H]1CC[C@H](NC(=O)c2cc(Cl)cnc2C(F)F)CC1 (stereo partly drawn) [Example 178] | < 0.2 |
| Cc1cccc2c1C(O)(c1ccccc1F)C(=O)N2C[C@H]1CC[C@H](NC(=O)c2cc(Cl)cnc2C(F)F)CC1 (stereo partly drawn) [Example 179, 5-chloro-2-(difluoromethyl)-N-((1r,4r)-4-((3-(2-fluorophenyl)-3-hydroxy-4-methyl-2-oxoindolin-1-yl)methyl)cyclohexyl) nicotinamide] | < 0.2 |
| COc1ccc(F)c(C2(O)C(=O)N(C[C@H]3CC[C@H](NC(=O)c4cc(Cl)cnc4C(F)(F)F)CC3)c3ccccc32)c1 (stereo partly drawn) [Example 185, 5-chloro-N-((1r,4r)-4-((3-(2-fluoro-5-methoxyphenyl)-3-hydroxy-2-oxoindolin-1-yl)methyl)cyclohexyl)-2-(trifluoromethyl)nicotinamide] | < 0.2 |
| COc1ccc(F)c(C2(O)C(=O)N(C[C@H]3CC[C@H](NC(=O)c4cc(Cl)cnc4C(F)F)CC3)c3cccc(F)c32)c1 (stereo partly drawn) [Example 189, 5-chloro-2-(difluoromethyl)-N-((1r,4r)-4-((4-fluoro-3-(2-fluoro-5-methoxyphenyl)-3-hydroxy-2-oxoindolin-1-yl)methyl)cyclohexyl) nicotinamide] | < 0.2 |
| O=C(N[C@H]1CC[C@H](CN2C(=O)C(O)(c3cccc(Cl)c3F)c3c(F)cccc32)CC1)c1cc(Cl)cnc1C(F)F (stereo partly drawn) [Example 190, 5-chloro-N-((1r,4r)-4-((3-(3-chloro-2-fluorophenyl)-4-fluoro-3-hydroxy-2-oxoindolin-1-yl)methyl)cyclohexyl)-2-(difluoromethyl)nicotinamide] | < 0.2 |
| O=C(N[C@H]1CC[C@H](CN2C(=O)C(O)(c3ccccc3F)c3c(F)cccc32)CC1)c1cc(Cl)cnc1C(F)F (stereo partly drawn) [Example 191, 5-chloro-2-(difluoromethyl)-N-((1r,4r)-4-((4-fluoro-3-(2-fluorophenyl)-3-hydroxy-2-oxoindolin-1-yl)methyl)cyclohexyl) nicotinamide] | < 0.2 |
| O=C(N[C@H]1CC[C@H](CN2C(=O)C(O)(c3cccc(F)c3F)c3c(F)cccc32)CC1)c1cc(Cl)cnc1C(F)F (stereo partly drawn) [Example 192, 5-chloro-2-(difluoromethyl)-N-((1r,4r)-4-((3-(2,3-difluorophenyl)-4-fluoro-3-hydroxy-2-oxoindolin-1-yl)methyl)cyclohexyl) nicotinamide] | < 0.2 |
